Source: paper PMC11434480, “Discovery and Optimization of Ergosterol Peroxide Derivatives as Novel Glutaminase 1 Inhibitors for the Treatment of Triple-Negative Breast Cancer” (Molecules, 2024)

Experiments:
human GLS1 = molecular target: T1, human GLS1 (Homo sapiens, UniProt O94925); experiment: GLS1 inhibitor screening kit in MDA-MB-231 cells; format: cell-based; conditions: 48 h, read-out: GLS1 inhibition IC50
T1 sequence (O94925 55-669): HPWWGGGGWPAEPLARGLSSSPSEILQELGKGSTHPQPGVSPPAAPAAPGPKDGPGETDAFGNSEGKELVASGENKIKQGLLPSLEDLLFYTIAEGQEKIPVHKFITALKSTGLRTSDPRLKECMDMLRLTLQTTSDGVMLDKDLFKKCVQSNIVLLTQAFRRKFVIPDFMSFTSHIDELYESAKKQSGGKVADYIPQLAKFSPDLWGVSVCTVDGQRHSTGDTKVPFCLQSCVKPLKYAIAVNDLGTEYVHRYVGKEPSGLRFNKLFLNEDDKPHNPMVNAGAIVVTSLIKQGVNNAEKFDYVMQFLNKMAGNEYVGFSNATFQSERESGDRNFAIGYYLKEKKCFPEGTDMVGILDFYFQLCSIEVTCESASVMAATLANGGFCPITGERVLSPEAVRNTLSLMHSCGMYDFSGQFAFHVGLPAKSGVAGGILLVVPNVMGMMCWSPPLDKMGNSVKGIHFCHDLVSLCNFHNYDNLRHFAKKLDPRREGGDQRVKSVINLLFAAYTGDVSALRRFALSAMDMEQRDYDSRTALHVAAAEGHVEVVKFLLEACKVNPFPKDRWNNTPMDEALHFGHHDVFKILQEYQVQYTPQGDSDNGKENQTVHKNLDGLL
Description: The GLS1 inhibitory activity of compound 3g in MDA-MB-231 cells was evaluated using a GLS1 inhibitor screening kit.
MDA-MB-231 cells were cultured for 24 h and then incubated with different concentrations of 3g or 0.1%DMSO for 48 h and washed with PBS 1–2 times. The cells were then collected, subjected to ultrasound in an ice bath for 5 min, and centrifuged at 4 °C and 1200 g for 15 min. Next, the GLS1 activity in human GLS1 was evaluated according to the manufacturer’s guidelines using a GLS1 screening kit (Sangon Biotech #D799306, Shanghai, China) in a 96-well plate (Corning # 351172, New York, NY, USA).

MDA-MB-231 = experiment: MTT antiproliferative assay, MDA-MB-231; format: cell-based, human; conditions: for IC50: MTT, 48 h, mean of three experiments ± SD
Description: (§2) The in vitro antiproliferative activity of the novel EP derivatives (1a–h, 2a–h, 3a–h, and 4a–h) was evaluated on four different human cancer cell lines (A549, HepG2, MCF-7, and MDA-MB-231) using an MTT assay.
(§3) Cells containing 10% fetal bovine serum (FBS; WISENT, Nanjing, China) were cultured in an L-15 culture medium (L-15, BOSTER, Wuhan, China) in an incubator at 37 °C. The cells were then inoculated into 96-well plates at a density of 5 × 10^3/well, cultured in 100 μL L-15 medium for 24 h, and incubated with the compound to be tested for 48 h. Next, 20 μL of MTT (5 mg/mL) solution was added and incubated at 37 °C for 4 h away from light. A resorption culture medium was then supplemented with 150 μL DMSO per well. The absorbance was measured at 570 nm using an enzymometer (SAFIRE2, Tecan, Swiss Confederation, Männedorf, Switzerland). The cytotoxic activity was presented in terms of half the inhibition rate.

HepG2 = experiment: MTT antiproliferative assay, HepG2; format: cell-based, human; conditions: mean of three experiments ± SD
Description: as §2, §3

A549 = experiment: MTT antiproliferative assay, A549; format: cell-based, human; conditions: mean of three experiments ± SD
Description: as §2, §3

MCF-7 = experiment: MTT antiproliferative assay, MCF-7; format: cell-based, human; conditions: mean of three experiments ± SD
Description: as §2, §3

MDA-MB-231 cells [1] = experiment: Colony formation assay; format: cell-based; conditions: Homo sapiens, MDA-MB-231 colony formation, vs blank control, read-out: proliferation inhibition rate
Description: To explore the inhibitory effect of 3g on the proliferation of MDA-MB-231 cells, we treated MDA-MB-231 cells with different concentrations of 3g and EP.
MDA-MB-231 cells (1000 cells/well) were seeded into a 6-well plate with 2 mL L–15 culture medium and incubated at 37 °C for 24 h. Following this process, different concentrations of 3g or EP were added and incubated for an additional 24 h before the culture medium was replaced. The cells then continued to be cultured for two weeks, with the culture medium being changed twice a week. After two weeks, the cell colonies were washed with PBS, fixed using a 4% paraformaldehyde solution (Beyotime, Shanghai, China), and subsequently stained with a 0.05% crystal violet solution (Beyotime, Shanghai, China).

4T1 cells = experiment: 4T1 transplanted tumor model in BALB/c mice
MDA-MB-231 cells [2] = format: cell-based, human; conditions: 2, 4 and 8 μM, 48 h
MDA-MB-231 cells [3] = experiment: ROS assay (DCFH-DA, confocal microscopy and flow cytometry); format: cell-based, human; conditions: MDA-MB-231, different concentrations, 48 h
Description: Excessive ROS in tumor cells can induce tumor cell apoptosis. Nevertheless, the ROS levels in tumor cells were often influenced by glutamine. Thus, the regulation of glutamine metabolism was crucial for ROS homeostasis. In this study, laser confocal microscopy and flow cytometry were employed to detect the ROS level.
MDA-MB-231 cells were inoculated in 24-well plates at a density of 8 × 10^3 cells per well and incubated with different concentrations of 3 g or 0.1% DMSO for 48 h. The cells were washed with PBS 1–2 times. The cells were then incubated at 37 °C for 20 min with reference to a DCFH-DA fluorescent probe kit (Keygen Company, Nanjing, China) and washed with a serum-free medium 1–2 times. The ROS levels were observed via laser confocal microscopy (LSM710, Zeiss, Oberkochen, Germany) or detected with flow cytometry (FACS Calibur, Becton, Dickinson and Company, Franklin Lakes, NJ, USA).

MDA-MB-231 cells [4] = experiment: Annexin V-FITC/PI apoptosis assay (flow cytometry); format: cell-based, human; conditions: Annexin V-FITC/PI double staining, 48 h
Description: (§1) To determine whether the decrease in MDA-MB-231 cell viability observed after 3g treatment was related to apoptosis, we treated MDA-MB-231 cells with 3g and assessed the changes in apoptosis.
An Annexin V FITC/PI apoptosis detection kit (Keygen Company, Nanjing, China) was employed to identify apoptotic cells. Briefly, MDA-MB-231 cells were subjected to treatment with varying concentrations of 3g or 0.1% DMSO and incubated at 37 °C for 48 h. Subsequently, the cells were harvested and resuspended in PBS at a concentration of 1 × 10^5 cells/mL. Following centrifugation at 2000 rpm/min for 5 min, 500 μL binding buffer, 5 μL Annexin V FITC, and 5 μL propidium iodide (PI) were added. The mixture was then incubated at room temperature in the absence of light for 20 min. Finally, the samples were analyzed using FACSCalibur flow cytometry (Becton, Dickinson and Company, Franklin Lakes, USA).

MDA-MB-231 cells [5] = experiment: Western blot of apoptosis proteins; format: cell-based, human; conditions: MDA-MB-231, 48 h
Description: as §1
MDA-MB-231 cells were subjected to treatment with different concentrations of 3g or 0.1% DMSO for 48 h. Subsequently, the cells were gathered, and the total protein was extracted by adding protease inhibitors and phosphatase inhibitors along with 1 × RIPA lysis buffer (Beyotime Company). The quantification of the extracted protein was carried out using a BCA kit (ComWin Biotech Company, Beijin, China). The extracted total protein, with an amount of 20 μg/well, underwent SDS–polyacrylamide gel electrophoresis (SDS-PAGE, provided by BioRad Laboratories located in Hercules, CA, USA). The protein was then wet-transferred to a PVDF membrane. Next, GLS1, Bcl-2, Bax, Cyt C, caspase-9, cleaved caspase-9, caspase-3, cleaved caspase-3, and GAPDH were incubated at 4 °C overnight. Subsequently, the secondary isotype-specific antibody, which was labeled with horseradish peroxidase, was obtained from Cell Signaling Technology. The color was developed with an ECL luminescent solution (Meilun Biotech Company, Dalian, China) and detected using a gel imager (ChemiDoc MP, BioRad Laboratories, CA, USA).

[6] = 25 and 50 mg/kg/2 days, intraperitoneal, 14 days

Compound | IC50 (human GLS1) [µM] | IC50 (MDA-MB-231; Homo sapiens, MDA-MB-231) [µM] | IC50 (HepG2; Homo sapiens, HepG2, 48 h) [µM] | IC50 (A549; Homo sapiens, A549, 48 h) [µM] | IC50 (MCF-7; Homo sapiens, MCF7, 48 h) [µM] | further results
CC(C)[C@@H](C)/C=C/[C@@H](C)[C@H]1CC[C@@H]2[C@]1(C)CC[C@H]1[C@]23C=C[C@]2(C[C@@H](O)CC[C@]12C)OO3 [EP, Ergosterol peroxide] | 33.7 | 17.3 ± 1.05 | 18.1 ± 1.71 | 15 ± 1.27 | 19.4 ± 1.5 | –
CC(C)C(C)C=CC(C)C1CCC2C1(C)CCC1C23C=CC2(CC(OC(=O)c4ccccc4C(=O)Nc4nncs4)CCC12C)OO3 (stereo not drawn) [Compound 4a, Ergosterol peroxide-3-(2-((1,3,4-thiadiazol-2-yl)carbamoyl)benzoate)] | – | 10.2 ± 0.62 | 8.08 ± 0.64 | 7.07 ± 0.47 | 8.2 ± 0.68 | –
COc1ccc(NC(=O)CCCC(=O)OC2CCC3(C)C4CCC5(C)C(C(C)C=CC(C)C(C)C)CCC5C45C=CC3(C2)OO5)cc1 (stereo not drawn) [Compound 3g] | 3.77 | 3.2 ± 0.29 | 15.5 ± 0.63 | 13.5 ± 1.14 | 4.57 ± 0.62 | inhibition at 2 µM (MDA-MB-231 cells [1]): 56.3%; effect on body weights of the mice (4T1 cells; [6]): no significant effect; tumor volume and tumor weight (4T1 cells; [6]): significantly reduced; tumor growth (4T1 cells; 25 and 50 mg/kg/2 days, intraperitoneal, 14 days, vs blank control): effectively inhibited; therapeutic effect in mouse model of breast cancer (4T1 cells; dose of 50 mg/kg): remarkable therapeutic effects; toxicity in mouse model of breast cancer (4T1 cells; dose of 50 mg/kg): no apparent toxicity; histopathological changes in heart, liver, spleen, lungs and kidneys (HE staining) (4T1 cells; tumor-bearing mice, 14 days treatment): no histopathological changes; glutamate production in MDA-MB-231 cells (MDA-MB-231 cells [2]): reduced the production of glutamate in MDA-MB-231 cells in a dose-dependent manner; intracellular ROS level (MDA-MB-231 cells [3]): significantly elevated the intracellular ROS level; apoptosis of MDA-MB-231 cells (MDA-MB-231 cells [4]): increased significantly; fold higher activity than EP against MDA-MB-231 (MDA-MB-231; ratio of IC50 values, EP vs compound): 5.4 fold; expression of Bax, Cyt C, cleaved caspase-9 and cleaved caspase-3 (MDA-MB-231 cells [5]): significantly upregulated; expression of Bcl-2 (MDA-MB-231 cells [5]): decreased the expression
N.N.[Cl][Pt][Cl] [Cisplatin, reference compound] | – | – | – | – | – | IC50 (MDA-MB-231): 10.4 ± 0.34 µM; IC50 (HepG2; 48 h): 6.29 ± 0.3 µM; IC50 (A549; 48 h): 11.6 ± 0.38 µM; IC50 (MCF-7; 48 h): 4.23 ± 0.24 µM
CC(C)C(C)C=CC(C)C1CCC2C1(C)CCC1C23C=CC2(CC(OC(=O)c4ccccc4C(=O)Nc4nc5cc(F)ccc5s4)CCC12C)OO3 (stereo not drawn) [Compound 4c, Ergosterol peroxide-3-(2-((5-fluorobenzo[d]thiazol-2-yl)carbamoyl)benzoate)] | – | 7.32 ± 0.58 | 11.4 ± 0.98 | 11.7 ± 1.02 | 10.7 ± 0.47 | –
O=C(Cc1ccccc1)Nc1nnc(CCSCCc2nnc(NC(=O)Cc3ccccc3)s2)s1 [BPTES, reference compound] | – | 9.1 ± 0.26 | 60.2 ± 8.35 | 49.1 ± 11.6 | 21.3 ± 6.89 | –
